Reference: US8076487B2, “Pyridone derivative and herbicide” (Kumiai Chemical Industry Co., Ltd., priority 2006, dated 2011)

Experiments:
Format in all cases: in vivo
[1] = test system: heartshape false pickerelweed (Monochoria vaginalis (Burm.f.) C.Presl); assay: Test Example 1: herbicidal effect by soil application to paddy field; details: paddy field soil application; active ingredient 1,000 g per 1 hectare; wettable powder added dropwise to water surface the day after sowing; examined on the 21st day after application
How it was run: (§1)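 Plants were sown in flooded (3 cm) paddy soil and evaluated for herbicidal effect 21 days after soil application in a greenhouse.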

[2] = test system: Japanese bulrush (Scirpus juncoides Roxb.); assay: as above; details: paddy field soil application; active ingredient 1,000 g per 1 hectare; wettable powder added dropwise to water surface the day after sowing; examined on the 21st day after application
How it was run: as §1

[3] = test system: early watergrass (Echinochloa oryzicola Vasing); assay: as above; details: paddy field soil application; active ingredient 1,000 g per 1 hectare; wettable powder added dropwise to water surface the day after sowing; examined on the 21st day after application
How it was run: as §1

[4] = test system: barnyardgrass (Echinochloa crus-galli (L.) P. Beauv. var. crus-galli); assay: Test Example 3: herbicidal effect by application to upland field (foliage treatment); details: foliage treatment, 1,000 g active ingredient per 1 hectare, 14th day after application, greenhouse
How it was run: (§2)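 Upland foliage test in greenhouse pots of field soil: seedlings sprayed at two weeks post-sowing with 1,000 g/ha active ingredient (wettable powder, 1,000 L water/ha). Scored 14 d after application.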

[5] = test system: velvetleaf (Abutilon theophrasti medicus); assay: as above; details: foliage treatment, 1,000 g active ingredient per 1 hectare, 14th day after application, greenhouse
How it was run: as §2

[6] = test system: slender amaranth (Amaranthus viridis L.); assay: as above; details: foliage treatment, 1,000 g active ingredient per 1 hectare, 14th day after application, greenhouse
How it was run: as §2

[7] = test system: green foxtail (Setaria viridis (L.) P. Beauv.); assay: as above; details: foliage treatment, 1,000 g active ingredient per 1 hectare, 14th day after application, greenhouse
How it was run: as §2

[8] = test system: barnyardgrass (Echinochloa crus-galli (L.) P. Beauv. var. crus-galli); assay: Test Example 2: herbicidal effect by soil application to upland field; details: soil surface spray, upland field soil, 1,000 g active ingredient per hectare, 21st day after application
How it was run: (§3)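 A standard visual rating of herbicidal effect, made 21 days after treatment, gives the value. Treatment consisted of a uniform spray of water-diluted wettable powder on the soil covering newly sown seeds, equivalent to 1,000 g active ingredient and 1,000 liters per hectare.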

[9] = test system: velvetleaf (Abutilon theophrasti medicus); assay: as above; details: soil surface spray, upland field soil, 1,000 g active ingredient per hectare, 21st day after application
How it was run: as §3

[10] = test system: slender amaranth (Amaranthus viridis L.); assay: as above; details: soil surface spray, upland field soil, 1,000 g active ingredient per hectare, 21st day after application
How it was run: as §3

[11] = test system: green foxtail (Setaria viridis (L.) P. Beauv.); assay: as above; details: soil surface spray, upland field soil, 1,000 g active ingredient per hectare, 21st day after application
How it was run: as §3

Row | Structure (SMILES) | herbicidal effect, Monochoria vaginalis (Burm. f.) C. Presl [1] | herbicidal effect, Scirpus juncoides Roxb. [2] | herbicidal effect, Echinochloa oryzicola Vasing [3] | herbicidal effect, Barnyardgrass [4] | herbicidal effect, Velvetleaf [5] | herbicidal effect, Slender Amaranth [6] | herbicidal effect, Green Foxtail [7] | herbicidal effect (index), Barnyardgrass [8] | herbicidal effect (index), Velvetleaf [9] | herbicidal effect (index), Slender Amaranth [10] | herbicidal effect (index), Green Foxtail [11]
1 | COC(Cn1c(C(F)(F)F)ccc(C(=O)C2=C(O)C3CCC(C3)C2=O)c1=O)OC (stereo not drawn) [III-25] | 5 (90% or more of herbicidal effect and crop phytotoxicity) | 5 (90% or more of herbicidal effect and crop phytotoxicity) | 5 (90% or more of herbicidal effect and crop phytotoxicity) | 5 (90% or more of herbicidal effect and crop phytotoxicity) | 5 (90% or more of herbicidal effect and crop phytotoxicity) | 5 (90% or more of herbicidal effect and crop phytotoxicity) | 5 (90% or more of herbicidal effect and crop phytotoxicity) | 5 (90% or more of herbicidal effect and crop phytotoxicity) | 5 (90% or more of herbicidal effect and crop phytotoxicity) | 5 (90% or more of herbicidal effect and crop phytotoxicity) | 5 (90% or more of herbicidal effect and crop phytotoxicity)
2 | Cn1ncc(C(=O)c2ccc(C(F)(F)F)n(-c3ccc4c(c3)OCCO4)c2=O)c1O [IV-101] | 5 (90% or more of herbicidal effect and crop phytotoxicity) | 5 (90% or more of herbicidal effect and crop phytotoxicity) | 5 (90% or more of herbicidal effect and crop phytotoxicity) | 5 (90% or more of herbicidal effect and crop phytotoxicity) | 4 (70 to less than 90% of herbicidal effect and crop phytotoxicity) | 4 (70 to less than 90% of herbicidal effect and crop phytotoxicity) | 3 (50 to less than 70% of herbicidal effect and crop phytotoxicity) | 5 (90% or more of herbicidal effect and crop phytotoxicity) | 4 (70 to less than 90% of herbicidal effect and crop phytotoxicity) | 5 (90% or more of herbicidal effect and crop phytotoxicity) | 4 (70 to less than 90% of herbicidal effect and crop phytotoxicity)
3 | Cn1ncc(C(=O)c2ccc(Cl)n(C)c2=O)c1O [IV-243] | 5 (90% or more of herbicidal effect and crop phytotoxicity) | 5 (90% or more of herbicidal effect and crop phytotoxicity) | 5 (90% or more of herbicidal effect and crop phytotoxicity) | 5 (90% or more of herbicidal effect and crop phytotoxicity) | 5 (90% or more of herbicidal effect and crop phytotoxicity) | 5 (90% or more of herbicidal effect and crop phytotoxicity) | 4 (70 to less than 90% of herbicidal effect and crop phytotoxicity) | 5 (90% or more of herbicidal effect and crop phytotoxicity) | 5 (90% or more of herbicidal effect and crop phytotoxicity) | 5 (90% or more of herbicidal effect and crop phytotoxicity) | 3 (50 to less than 70% of herbicidal effect and crop phytotoxicity)
4 | CCCCCCn1c(C(F)(F)F)ccc(C(=O)C2=C(O)C3CCC(C3)C2=O)c1=O (stereo not drawn) [III-10] | 5 (90% or more of herbicidal effect and crop phytotoxicity) | 5 (90% or more of herbicidal effect and crop phytotoxicity) | 5 (90% or more of herbicidal effect and crop phytotoxicity) | 5 (90% or more of herbicidal effect and crop phytotoxicity) | 5 (90% or more of herbicidal effect and crop phytotoxicity) | 4 (70 to less than 90% of herbicidal effect and crop phytotoxicity) | 5 (90% or more of herbicidal effect and crop phytotoxicity) | 5 (90% or more of herbicidal effect and crop phytotoxicity) | 5 (90% or more of herbicidal effect and crop phytotoxicity) | 5 (90% or more of herbicidal effect and crop phytotoxicity) | 5 (90% or more of herbicidal effect and crop phytotoxicity)
5 | Cc1ccsc1-n1c(C(F)(F)F)ccc(C(=O)C2=C(O)CCCC2=O)c1=O [I-149] | 5 (90% or more of herbicidal effect and crop phytotoxicity) | 5 (90% or more of herbicidal effect and crop phytotoxicity) | 5 (90% or more of herbicidal effect and crop phytotoxicity) | 5 (90% or more of herbicidal effect and crop phytotoxicity) | 5 (90% or more of herbicidal effect and crop phytotoxicity) | 5 (90% or more of herbicidal effect and crop phytotoxicity) | 5 (90% or more of herbicidal effect and crop phytotoxicity) | 5 (90% or more of herbicidal effect and crop phytotoxicity) | 5 (90% or more of herbicidal effect and crop phytotoxicity) | 5 (90% or more of herbicidal effect and crop phytotoxicity) | 5 (90% or more of herbicidal effect and crop phytotoxicity)
6 | CCC(C)n1c(C(F)(F)F)ccc(C(=O)c2cnn(C)c2O)c1=O (stereo not drawn) [IV-8] | 5 (90% or more of herbicidal effect and crop phytotoxicity) | 5 (90% or more of herbicidal effect and crop phytotoxicity) | 5 (90% or more of herbicidal effect and crop phytotoxicity) | 5 (90% or more of herbicidal effect and crop phytotoxicity) | 5 (90% or more of herbicidal effect and crop phytotoxicity) | 5 (90% or more of herbicidal effect and crop phytotoxicity) | 4 (70 to less than 90% of herbicidal effect and crop phytotoxicity) | 5 (90% or more of herbicidal effect and crop phytotoxicity) | 5 (90% or more of herbicidal effect and crop phytotoxicity) | 5 (90% or more of herbicidal effect and crop phytotoxicity) | 5 (90% or more of herbicidal effect and crop phytotoxicity)
